Data taken from PubChem BioAssay AID2060624 (Molecular Pharmacology Branch, DTP, NCI, 2025).
Where “and” joins values, the source holds several entries; their conditions need not be identical. Identical values can stand only once.

System: 217524-143-R1-J4-PDC spheroids with HUVEC/MSC, viability
Assay: Anticancer human tumor 217524-143-R1-J4-PDC patient-derived pancreatic carcinoma cell line growth inhibition [CLK]
Settings: for viability, T/C: stronger effect = lower value
Description: A high-throughput screen of multi-cell type tumor spheroids was designed to identify active combinations of […] and targeted small molecules. Complex spheroids include a stromal component modeled by human endothelial cells (HUVEC) and fibroblasts modeled by human mesenchymal stem cells (MSCs). The concentration ranges selected for each drug and investigational agent were based upon clinically achievable concentrations if the clinical Cmax of the agent was known.
Compounds. The drugs and investigational agents: cirtuvivint (SM08502; NSC835563), CC-671 (NSC850746), vemurafenib (NSC761431), tapotoclax (NSC804041), sotorasib (NSC818433), adagrasib (NSC831453), MRTX-1133 (NSC836407), BAY2416964 (NSC825713), copanlisib (NSC816437), inavolisib (NSC800729), abemaciclib (NSC768073), osimertinib (NSC779217), entinostat (NSC756642), eltanexor (KPT-8602, NSC794443), venetoclax (NSC766270), ceralasertib (NSC777638), bortezomib (NSC756655), olaparib (NSC753686), talazoparib (NSC767125), alisertib (NSC759677), peposertib (NSC802822), gemcitabine (NSC613327), 5-fluorouracil (NSC19893), SN-38 (NSC673596), oxaliplatin (NSC266046), paclitaxel (NSC125973), and doxorubicin (NSC123127), were obtained from the National Cancer Institute (NCI) Developmental Therapeutics Program Chemical Repository. The FDA-approved anticancer drug set is available from the Developmental Therapeutics Program at https://dtp.cancer.gov/organization/dscb/obtaining/available plates.htm. […] The stock solutions were prepared in dimethyl sulfoxide (DMSO, Sigma-Aldrich, St. Louis, MO, cat. D2650), except for the platinum complexes which were prepared in saline (Quality Biological, Gaithersburg, MD, cat. 114-055-101), at 800-fold the tested concentration and stored at -70 degrees C prior to their use. All drugs and investigational agents were tested over a range starting from a high concentration at or near the clinical Cmax and decreasing in half-log increments. If the clinical Cmax for an agent had not been determined, the highest concentration tested was 10 microM.
Cell Culture. All cells were maintained in an incubator at 37 degrees C and 5% CO2 with 95% humidity. The PDC lines were cultured according to standard operating procedures established by the NCI PDMR. Briefly, all PDCs were thawed and cultured in Matrigel-coated flasks prepared with a working solution of 1X Ham's F-12 nutrient mix, without supplementation (Invitrogen, Waltham, MA, cat. 11765054), 100 U/mL penicillin-streptomycin (Invitrogen, cat. 15140122), and 2.5% Matrigel (Corning Inc., Corning, NY, cat. 354248) for the first three passages. The 947758-054-R-J2-PDC line was cultured in 6B/Colon 1A media, which includes advanced DMEM/F-12 (Thermo Fisher Scientific, cat. 12634028), 10 mM HEPES (Thermo Fisher Scientific, cat. 15630080), 1X GlutaMAX supplement (Thermo Fisher Scientific, cat. 35050061), 0.1 mg/mL primocin (InvivoGen, cat. ant-pm-2), 10% defined fetal bovine serum, heat inactivated (HyClone Laboratories Inc., cat. SH30070.03HI), 1.25 mM N-Acetyl-L-cysteine (Sigma-Aldrich, cat. A9165), 10 mM nicotinamide (Sigma-Aldrich, cat. N0636), 1X B-27 supplement (Thermo Fisher Scientific, cat. 17504044), 1X N-2 supplement (Thermo Fisher Scientific, cat. 17502048), and 10 microM Y-27632 dihydrochloride (Tocris Bioscience, cat. 1254). The 876862-298-R-J1-PDC was cultured in 6E media, which includes all 6B/Colon 1A media components plus 50% L-WRN conditioned media (ATCC, cat. CRL-3276), 50 ng/mL recombinant human EGF recombinant protein (hEGF; Thermo Fisher Scientific, cat. PHG0311), 10 ng/mL recombinant human fibroblast growth factor 10 (hGFG-10; PeproTech, cat. 100-26), 1 ng/mL recombinant human fibroblast growth factor 2 (hFGF-2; PeproTech, cat. 100-18B), and 1 µM prostaglandin E2 (PGE2; Tocris, cat. 2296). The 227483-062-R1-J1-PDC line was cultured in Panc media, containing all 6E components except hFGF-2, with the addition of 500 nM SB-431542 (Selleckchem, cat. S1067) and 10 nM gastrin (Tocris, cat. 3006). […]

[1] = curve of first compound, second compound 0.0316 µM
[2] = curve of first compound, second compound 0.1 µM
[3] = curve of first compound, second compound 0.316 µM
[4] = curve of first compound, second compound 1 µM
[5] = curve of first compound, second compound 3.16 µM
[6] = curve of first compound, second compound 10 µM
[7] = second compound 0.0316 µM, first compound 0.0316 µM
[8] = second compound 0.0316 µM, first compound 0.1 µM
[9] = second compound 0.0316 µM, first compound 0.316 µM
[10] = second compound 0.0316 µM, first compound 1 µM
[11] = second compound 0.0316 µM, first compound 3.16 µM
[12] = second compound 0.0316 µM, first compound 10 µM
[13] = second compound 0.1 µM, first compound 0.0316 µM
[14] = second compound 0.1 µM, first compound 0.1 µM
[15] = second compound 0.1 µM, first compound 0.316 µM
[16] = second compound 0.1 µM, first compound 1 µM
[17] = second compound 0.1 µM, first compound 3.16 µM
[18] = second compound 0.1 µM, first compound 10 µM
[19] = second compound 0.316 µM, first compound 0.0316 µM
[20] = second compound 0.316 µM, first compound 0.1 µM
[21] = second compound 0.316 µM, first compound 0.316 µM
[22] = second compound 0.316 µM, first compound 1 µM
[23] = second compound 0.316 µM, first compound 3.16 µM
[24] = second compound 0.316 µM, first compound 10 µM
[25] = second compound 1 µM, first compound 0.0316 µM
[26] = second compound 1 µM, first compound 0.1 µM
[27] = second compound 1 µM, first compound 0.316 µM
[28] = second compound 1 µM, first compound 1 µM
[29] = second compound 1 µM, first compound 3.16 µM
[30] = second compound 1 µM, first compound 10 µM
[31] = second compound 3.16 µM, first compound 0.0316 µM
[32] = second compound 3.16 µM, first compound 0.1 µM
[33] = second compound 3.16 µM, first compound 0.316 µM
[34] = second compound 3.16 µM, first compound 1 µM
[35] = second compound 3.16 µM, first compound 3.16 µM
[36] = second compound 3.16 µM, first compound 10 µM
[37] = second compound 10 µM, first compound 0.0316 µM
[38] = second compound 10 µM, first compound 0.1 µM
[39] = second compound 10 µM, first compound 0.316 µM
[40] = second compound 10 µM, first compound 1 µM
[41] = second compound 10 µM, first compound 3.16 µM
[42] = second compound 10 µM, first compound 10 µM
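Note: spheroids exposed to agents for seven days before reading.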
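Throughout, for viability, T/C: 100% = DMSO vehicle control viability.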

CN1CCN(c2cc(C(=O)Nc3cc4cc(-c5cnn(C)c5)ccc4cn3)ccn2)CC1
viability, T/C (compound 0.1 µM): 54.9% [middle of 12 runs]
viability, T/C (compound 0.316 µM): 21.7% [middle of 12 runs]
viability, T/C (compound 1 µM): 1.79% [middle of 12 runs]
viability, T/C (compound 3.16 µM): 0.9% [middle of 12 runs]
viability, T/C (compound 10 µM): 0.22% [middle of 9 runs]
IC50 (compound alone, run of 07/31/2023): 119 nM [middle of 12 runs]

COc1ccc([C@@H](O)c2cc(-c3ncnc4cc(N5CCOCC5)ccc34)c(F)cc2Cl)nn1
viability, T/C (compound 0.0316 µM): 100% and 86.5%
viability, T/C (compound 0.1 µM): 68.5% and 86.3%
viability, T/C (compound 0.316 µM): 58.5% and 56.8%
viability, T/C (compound 1 µM): 52.6% and 42.2%
viability, T/C (compound 3.16 µM): 34.3% and 27.2%
viability, T/C (compound 10 µM): 10.5% and 11.7%
IC50 (curve of compound): 0.756 µM and 0.632 µM

COc1cccc2c1C(=O)c1c(O)c3c(c(O)c1C2=O)CC(O)(C(=O)CO)CC3OC1CC(N)C(O)C(C)O1 (stereo unspecified)
viability, T/C (compound 0.0316 µM): 36.9% and 42.6%
viability, T/C (compound 0.1 µM): 24.5% and 29.6%
viability, T/C (compound 0.316 µM): 26.5% and 27.4%
viability, T/C (compound 1 µM): 16.9% and 18.4%
viability, T/C (compound 3.16 µM): 3.52% and 3.31%
viability, T/C (compound 10 µM): 1.28% and 0.73%
IC50 (curve of compound): < 0.0316 µM

C=CC(=O)N1CCN(c2nc(=O)n(-c3c(C)ccnc3C(C)C)c3nc(-c4c(O)cccc4F)c(F)cc23)C(C)C1 (stereo unspecified) + CN1CCN(c2cc(C(=O)Nc3cc4cc(-c5cnn(C)c5)ccc4cn3)ccn2)CC1
IC50 [1]: > 10 µM
IC50 [2]: > 10 µM
IC50 [3]: < 0.0316 µM
IC50 [4]: < 0.0316 µM
IC50 [5]: < 0.0316 µM
IC50 [6]: < 0.0316 µM
viability, T/C [7]: 93.4%
viability, T/C [8]: 71.5%
viability, T/C [9]: 67.1%
viability, T/C [10]: 90.5%
viability, T/C [11]: 111%
viability, T/C [12]: 95.4%
viability, T/C [13]: 62.3%
viability, T/C [14]: 59%
viability, T/C [15]: 58.7%
viability, T/C [16]: 64.9%
viability, T/C [17]: 66.7%
viability, T/C [18]: 57%
viability, T/C [19]: 25.8%
viability, T/C [20]: 22.5%
viability, T/C [21]: 27%
viability, T/C [22]: 30.8%
viability, T/C [23]: 31.1%
viability, T/C [24]: 22.9%
viability, T/C [25]: 1.96%
viability, T/C [26]: 2.92%
viability, T/C [27]: 1.65%
viability, T/C [28]: 3.19%
viability, T/C [29]: 2.93%
viability, T/C [30]: 2.27%
viability, T/C [31]: 1.06%
viability, T/C [32]: 1.37%
viability, T/C [33]: 1.15%
viability, T/C [34]: 0.96%
viability, T/C [35]: 1.76%
viability, T/C [36]: 1.78%
viability, T/C [37]: 0.21%
viability, T/C [38]: 0.25%
viability, T/C [39]: 0.24%
viability, T/C [40]: 0.29%
viability, T/C [41]: 0.41%
viability, T/C [42]: 0.29%

CCCS(=O)(=O)Nc1ccc(F)c(C(=O)c2c[nH]c3ncc(-c4ccc(Cl)cc4)cc23)c1F + CN1CCN(c2cc(C(=O)Nc3cc4cc(-c5cnn(C)c5)ccc4cn3)ccn2)CC1
IC50 [1]: > 10 µM
IC50 [2]: > 10 µM
IC50 [3]: < 0.0316 µM
IC50 [4]: < 0.0316 µM
IC50 [5]: < 0.0316 µM
IC50 [6]: < 0.0316 µM
viability, T/C [7]: 86.3%
viability, T/C [8]: 69.2%
viability, T/C [9]: 107%
viability, T/C [10]: 124%
viability, T/C [11]: 135%
viability, T/C [12]: 61.4%
viability, T/C [13]: 61.4%
viability, T/C [14]: 67.7%
viability, T/C [15]: 62.4%
viability, T/C [16]: 78.8%
viability, T/C [17]: 100%
viability, T/C [18]: 44.4%
viability, T/C [19]: 26.1%
viability, T/C [20]: 26.4%
viability, T/C [21]: 33.3%
viability, T/C [22]: 32.9%
viability, T/C [23]: 34.9%
viability, T/C [24]: 19.9%
viability, T/C [25]: 2.26%
viability, T/C [26]: 2.37%
viability, T/C [27]: 2.29%
viability, T/C [28]: 3.2%
viability, T/C [29]: 2.09%
viability, T/C [30]: 2.01%
viability, T/C [31]: 0.92%
viability, T/C [32]: 0.96%
viability, T/C [33]: 1.2%
viability, T/C [34]: 1.02%
viability, T/C [35]: 1.17%
viability, T/C [36]: 0.97%
viability, T/C [37]: 0.29%
viability, T/C [38]: 0.32%
viability, T/C [39]: 0.65%
viability, T/C [40]: 0.3%
viability, T/C [41]: 1.04%
viability, T/C [42]: 1.34%

COC1C=CCC(C)C(C)S(=O)(=O)NC(=O)c2ccc3c(c2)N(CC2CCC21)CC1(CCCc2cc(Cl)ccc21)CO3 (stereo unspecified) + CN1CCN(c2cc(C(=O)Nc3cc4cc(-c5cnn(C)c5)ccc4cn3)ccn2)CC1
IC50 [1]: 6.4 µM
IC50 [2]: 4.17 µM
IC50 [3]: < 0.0316 µM
IC50 [4]: < 0.0316 µM
IC50 [5]: < 0.0316 µM
IC50 [6]: < 0.0316 µM
viability, T/C [7]: 90.2%
viability, T/C [8]: 93.2%
viability, T/C [9]: 75%
viability, T/C [10]: 91.2%
viability, T/C [11]: 107%
viability, T/C [12]: 23.8%
viability, T/C [13]: 65.7%
viability, T/C [14]: 67.5%
viability, T/C [15]: 56%
viability, T/C [16]: 61.4%
viability, T/C [17]: 58.5%
viability, T/C [18]: 24.5%
viability, T/C [19]: 23.9%
viability, T/C [20]: 23.3%
viability, T/C [21]: 23.3%
viability, T/C [22]: 22.9%
viability, T/C [23]: 27%
viability, T/C [24]: 16.6%
viability, T/C [25]: 2.49%
viability, T/C [26]: 1.84%
viability, T/C [27]: 1.71%
viability, T/C [28]: 1.6%
viability, T/C [29]: 1.08%
viability, T/C [30]: 1.77%
viability, T/C [31]: 0.91%
viability, T/C [32]: 1.31%
viability, T/C [33]: 0.81%
viability, T/C [34]: 1%
viability, T/C [35]: 1.26%
viability, T/C [36]: 0.8%
viability, T/C [37]: 1.26%
viability, T/C [38]: 0.35%
viability, T/C [39]: 0.37%
viability, T/C [40]: 0.37%
viability, T/C [41]: 0.36%
viability, T/C [42]: 1.06%
